Literature values in PMC11054271, “ABCG2 Transports the Flukicide Nitroxynil and Affects Its Biodistribution and Secretion into Milk” (Pharmaceutics, 2024).

Tested on: Abcg2
Design: method as in PMID 34062171
Conditions: mice; cited from earlier work

In the case of `Cc1c(Cl)cccc1Nc1ccccc1C(=O)O` [tolfenamic acid], the “Testis accumulation, fold higher in Abcg2−/− compared to wild-type” value is given as ~3 fold.
